Measurements taken from PubChem BioAssay (NCI).
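Test compounds were applied to cells in 96-well plates for 48 hours at 5 doses. GI50: concentration for 50% inhibition of growth. TGI marks complete inhibition of growth.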

Assays:
Assay in all cases: NCI tumour cell line growth inhibition, 48 h
[1] = system: DMS 273 small cell lung
[2] = system: LXFL 529 NSCLC
[3] = system: M19-MEL melanoma
[4] = system: DMS 114 small cell lung
[5] = system: MDA-MB-231 breast
[6] = system: BT-549 breast
[7] = system: MCF7 breast
[8] = system: DU-145 prostate
[9] = system: XF 498 CNS
[10] = system: HOP-18 NSCLC
[11] = system: P388/ADR leukemia
[12] = system: P388 leukemia
[13] = system: SN12K1 renal
[14] = system: RXF-631 renal

Structure (SMILES)	TGI [1]	TGI [2]	TGI [3]	TGI [4]	TGI [5]	TGI [6]	TGI [7]	TGI [8]	TGI [10]	further results
O=c1ccc2nc3cc(Br)ccc3sc-2c1	> 100 µM	> 100 µM	> 100 µM	> 100 µM	–	–	–	–	–	–
O=C(CSc1nc2ccc([N+](=O)[O-])cc2s1)c1ccc2ccccc2c1	–	–	–	–	> 100 µM	> 100 µM	> 100 µM	> 100 µM	–	–
COc1cc2oc(=O)ccc2cc1C(=O)CC(C)C	–	–	–	–	> 100 µM	> 100 µM	> 100 µM	> 100 µM	–	–
CN(C)c1ccc(C=Nc2ccc(Oc3ccc(Cl)cc3)c(Cl)c2)cc1	–	–	–	–	38.5 µM	44.1 µM	> 100 µM	79 µM	–	–
CC(=O)OC1CC[C@@]2(C)C(=CC[C@@H]3[C@@H]2CC[C@]2(C)Nc4nn(S(C)(=O)=O)cc4C[C@@H]32)C1 (stereo not given in full)	–	–	–	–	> 100 µM	45 µM	40.7 µM	> 100 µM	–	–
Cn1cnc([N+](=O)[O-])c1Sc1nc(N)nc2c1ncn2C1OC(CO)C(O)C1O (stereo not given)	> 100 µM	> 100 µM	> 100 µM	> 100 µM	> 100 µM	> 100 µM	–	66.4 µM	> 100 µM	TGI [9]: > 100 µM
Cn1c(=O)[nH]c2nncnc2c1=O	106 µM	–	115 µM	345 µM	–	–	> 501 µM	–	61.1 µM	TGI [11]: > 625 µM; TGI [9]: 245 µM; TGI [12]: 148 µM; TGI [13]: > 625 µM
OC(c1ccccc1)(c1ccccc1)c1nccc2ccccc12	–	–	–	–	> 100 µM	37.2 µM	> 100 µM	> 100 µM	–	–
O=C(O)c1ccc(C(=O)c2ccccc2C(=O)O)cc1C(=O)O	–	–	–	–	> 100 µM	> 100 µM	> 100 µM	> 100 µM	–	–
CC(C)(C)OC(=O)NC(CCCCNC(=O)OCc1ccccc1)C(=O)NCCNc1ccc(NCCNC(=O)C(CCCCNC(=O)OCc2ccccc2)NC(=O)OC(C)(C)C)c2c1C(=O)c1ccccc1C2=O (stereo not given)	–	–	–	–	38.2 µM	> 100 µM	27.2 µM	> 100 µM	–	–
COc1ccc(C(=O)C2=NON3OC23C(=O)c2ccc(OC)cc2)cc1 (stereo not given)	36.4 µM	6.68 µM	32.8 µM	11.1 µM	–	–	–	–	33.7 µM	TGI [9]: 23.9 µM; TGI [14]: 31.8 µM
Cc1coc2c1C[C@@]1(C)[C@H](CCC[C@@H]1C)[C@H]2O	–	–	–	–	55.9 µM	–	95.7 µM	56.3 µM	–	–
OCc1cn(C(c2ccccc2)(c2ccccc2)c2ccccc2)cn1	–	–	–	–	> 100 µM	–	–	> 100 µM	–	–
COc1nc2[nH]ccc2c(=O)[nH]1	–	> 100 µM	–	> 100 µM	–	–	–	–	> 100 µM	TGI [14]: > 100 µM
N#CC12Cc3cc4c(cc3-c3cccc(c31)CCN2C(=O)c1ccccc1)OCO4 (stereo not given)	> 100 µM	> 100 µM	> 100 µM	> 100 µM	–	–	–	–	> 100 µM	TGI [9]: > 100 µM
COCC1CCCN1c1ccc(C=N/C(C#N)=C(\N)C#N)cc1 (stereo not given)	–	–	–	–	> 100 µM	> 100 µM	> 100 µM	> 100 µM	–	GI50 [5]: 18.7 µM; GI50 [6]: 98.9 µM; GI50 [7]: 33.4 µM; GI50 [8]: 6.25 µM
